Laboratory results from ChEMBL document CHEMBL5543095 (Eur J Med Chem, 2024).
Calls of active or inactive are those of the source. The calls are words filed in the database; no cut-off is given here.

Key:
U-87 MG [1] = test: Induction of cell cycle arrest in human U87 cells assessed as accumulation of cells at […] at 2 uM measured after 48 hrs by PI staining based flow cytometry analysis (reference value: 8.55%); type: functional, U-87MG ATCC
A549 = test: Antiproliferative activity against human A549 cells assessed as inhibition of cell growth inhibition incubated for 48 hrs by CCK-8 assay; type: functional, cell-based; conditions: A549, 48 h
U-87 MG [2] = test: Induction of apoptosis in human U87 cells assessed as live cells at 0.3125 uM incubated for 48 hrs by Annexin V-FITC/PI staining based flow cytometry analysis (reference value: 91.7%); type: functional, U-87MG ATCC
U-87 MG [3] = test: Induction of cell cycle arrest in human U87 cells assessed as accumulation of cells at […] at 1 uM measured after 48 hrs by PI staining based flow cytometry analysis (reference value: 8.55%); type: functional, U-87MG ATCC
Tubulin (Homo sapiens) [4] = molecular target: T1, Tubulin (Homo sapiens) (UniProt P68371+Q9H4B7+P0DPH7+P68366+Q13509+Q71U36+P04350+Q3ZCM7+P07437+P68363+Q9BQE3+Q6PEY2+Q13885+Q9BVA1+Q9BUF5); test: Inhibition of tubulin (unknown origin) polymerization assessed as reduction in polymerization rate by fluorescence based analysis; type: protein-complex assay; conditions: dose 6-12 µM
P-gp = test: Substrate activity at P-gp in MDCK-MDR1 cells assessed as efflux ratio of apparent permeability across basolateral to apical side over apical to basolateral side at 10 uM incubated for 90 mins by LC-MS/MS analysis; type: ADME, cell-based, Canis lupus familiaris; conditions: dog
[5] = Cytotoxicity against HUVEC cells assessed as inhibition of cell growth inhibition incubated for 48 hrs by CCK-8 assay; type: toxicity, cell-based; conditions: human
U-87 MG [6] = test: Induction of cell cycle arrest in human U87 cells assessed as accumulation of cells at G1 phase at 1 uM measured after 48 hrs by PI staining based flow cytometry analysis (reference value: 72.6%); type: functional, U-87MG ATCC
U-87 MG [7] = test: Induction of apoptosis in human U87 cells assessed as live cells at 2.5 uM incubated for 48 hrs by Annexin V-FITC/PI staining based flow cytometry analysis (reference value: 91.7%); type: functional, U-87MG ATCC
U-87 MG [8] = test: Induction of apoptosis in human U87 cells assessed as late apoptotic cells at 0.3125 uM incubated for 48 hrs by Annexin V-FITC/PI staining based flow cytometry analysis (reference value: 2.08%); type: functional, U-87MG ATCC
U-87 MG [9] = test: Induction of apoptosis in human U87 cells assessed as dead cells at 2.5 uM incubated for 48 hrs by Annexin V-FITC/PI staining based flow cytometry analysis (reference value: 0.013%); type: functional, U-87MG ATCC
U-87 MG [10] = test: Induction of apoptosis in human U87 cells assessed as dead cells at 1.25 uM incubated for 48 hrs by Annexin V-FITC/PI staining based flow cytometry analysis (reference value: 0.013%); type: functional, U-87MG ATCC
Tubulin (Homo sapiens) [11] = molecular target: T1, Tubulin (Homo sapiens); test: Induction of microtubule depolymerization in human U87 cells assessed as degradation of intracellular tubulin skeleton by measuring reduction in fluorescence intensity at 0.5 to 1 uM incubated for 48 hrs by Alexa Flour 555/DAPI staining based confocal microscopic analysis; type: cell-based; conditions: dose 0.5-1 µM
U-87 MG [12] = test: Induction of apoptosis in human U87 cells assessed as late apoptotic cells at 0.625 uM incubated for 48 hrs by Annexin V-FITC/PI staining based flow cytometry analysis (reference value: 2.08%); type: functional, U-87MG ATCC
U-87 MG [13] = test: Induction of cell cycle arrest in human U87 cells assessed as accumulation of cells at G1 phase at 0.5 uM measured after 48 hrs by PI staining based flow cytometry analysis (reference value: 72.6%); type: functional, U-87MG ATCC
U-87 MG [14] = test: Induction of cell cycle arrest in human U87 cells assessed as accumulation of cells at G1 phase at 2 uM measured after 48 hrs by PI staining based flow cytometry analysis (reference value: 72.6%); type: functional, U-87MG ATCC
U-87 MG [15] = test: Induction of apoptosis in human U87 cells assessed as early apoptotic cells at 0.625 uM incubated for 48 hrs by Annexin V-FITC/PI staining based flow cytometry analysis (reference value: 6.25%); type: functional, U-87MG ATCC
U-87MG ATCC [16] = test: Downregulation of TUBB gene expression in human U87 cells by transcriptome analysis; type: functional, cell-based
GL261-Luc = test: Antitumor activity against mouse GL261-Luc cells implanted in C57BL/6 mouse assessed as reduction in tumor cell growth at 10 mg/kg, iv administered every other day on day 0,2,4,6,8,10 and measured after 12 days by H and E staining based analysis; type: functional, organism-based; conditions: time 12.0 day
U-87MG ATCC [17] = test: Downregulation of TUBB4B gene expression in human U87 cells by transcriptome analysis; type: functional, cell-based
[18] = Apparent permeability across apical to basolateral side in MDCK-MDR1 cells at 10 uM incubated for 90 mins by LC-MS/MS analysis; type: ADME, cell-based, Canis lupus familiaris; conditions: dog
U-87 MG [19] = test: Induction of cell cycle arrest in human U87 cells assessed as accumulation of cells at G1 phase at 4 uM measured after 48 hrs by PI staining based flow cytometry analysis (reference value: 72.6%); type: functional, U-87MG ATCC
U-87MG ATCC [20] = test: Downregulation of TUBA1B gene expression in human U87 cells by transcriptome analysis; type: functional, cell-based
U-87 MG [21] = test: Induction of apoptosis in human U87 cells assessed as dead cells at 0.3125 uM incubated for 48 hrs by Annexin V-FITC/PI staining based flow cytometry analysis (reference value: 0.013%); type: functional, U-87MG ATCC
[22] = Toxicity in C57BL/6 mouse implanted with mouse GL261-Luc cells assessed as histopathological changes in lung at 5 to 10 mg/kg, iv administered every other day on day 0,2,4,6,8,10 and measured after 12 days by H and E staining based analysis; type: organism-based; conditions: in vivo, 288 h, dose 5-10 mg/kg, time 12 day
U-87 MG [23] = test: Inhibition of cell migration in human U87 cells assessed as reduction in wound healing measured after 24 to 48 hrs by scratch assay; type: functional, cell-based; conditions: U-87MG ATCC, dose 0-1 µM, time 24-48 hrs
U-87 MG [24] = test: Induction of apoptosis in human U87 cells assessed as live cells at 0.625 uM incubated for 48 hrs by Annexin V-FITC/PI staining based flow cytometry analysis (reference value: 91.7%); type: functional, U-87MG ATCC
U-87 MG [25] = test: Induction of apoptosis in human U87 cells assessed as live cells at 1.25 uM incubated for 48 hrs by Annexin V-FITC/PI staining based flow cytometry analysis (reference value: 91.7%); type: functional, U-87MG ATCC
Tubulin (Homo sapiens) [26] = molecular target: T1, Tubulin (Homo sapiens); test: Inhibition of tubulin (unknown origin) polymerization assessed as reduction in steady state content of tubulins at 6 to 12 uM by fluorescence based analysis; type: protein-complex assay; conditions: dose 6-12 µM
[27] = Toxicity in C57BL/6 mouse implanted with mouse GL261-Luc cells assessed as histopathological changes in heart at 5 to 10 mg/kg, iv administered every other day on day 0,2,4,6,8,10 and measured after 12 days by H and E staining based analysis; type: organism-based; conditions: in vivo, 288 h, dose 5-10 mg/kg, time 12 day
[28] = Toxicity in C57BL/6 mouse implanted with mouse GL261-Luc cells assessed as histopathological changes in spleen at 5 to 10 mg/kg, iv administered every other day on day 0,2,4,6,8,10 and measured after 12 days by H and E staining based analysis; type: organism-based; conditions: in vivo, 288 h, dose 5-10 mg/kg, time 12 day
U-87 MG [29] = test: Induction of cell cycle arrest in human U87 cells assessed as accumulation of cells at […] at 0.5 uM measured after 48 hrs by PI staining based flow cytometry analysis (reference value: 8.55%); type: functional, U-87MG ATCC

SMILES: Cc1ccc2ccc3c(c2n1)OC(N)=C(C#N)C3c1ccccc1 (configuration not stated)
- Activity (U-87 MG [1]): 56.2%
- IC50 (A549): 880 nM
- Activity (U-87 MG [2]): 88.1%
- Activity (U-87 MG [3]): 24.6%
- inhibition (Tubulin (Homo sapiens) [4]): Dose-Dependent Effect
- efflux ratio at 1.5 h, 10 µM (P-gp): 0.76
- IC50 at 48 h [5]: > 10000 nM
- Activity (U-87 MG [6]): 33%
- Activity (U-87 MG [7]): 62.5%
- Activity (U-87 MG [8]): 4.87%
- Activity (U-87 MG [9]): 0.1%
- Activity (U-87 MG [10]): 0.027%
- Activity (Tubulin (Homo sapiens) [11]): Active
- Activity (U-87 MG [12]): 7.88%
- Activity (U-87 MG [13]): 72%
- Activity (U-87 MG [14]): 14.4%
- Activity (U-87 MG [15]): 16.1%
- Activity (U-87MG ATCC [16]): Active
- Activity (GL261-Luc): Active
- Activity (U-87MG ATCC [17]): Active
- Papp A→B at 1.5 h, 10 µM [18]: 33.7 ×10⁻⁶ cm/s
- Activity (U-87 MG [19]): 13%
- Activity (U-87MG ATCC [20]): Active
- Activity (U-87 MG [21]): 0.019%
- Activity [22]: Non-Toxic
- inhibition (U-87 MG [23]): Dose-Dependent Effect
- Activity (U-87 MG [24]): 75.9%
- Activity (U-87 MG [25]): 73.9%
- inhibition (Tubulin (Homo sapiens) [26]): Active
- Activity [27]: Non-Toxic
- Activity [28]: Non-Toxic
- Activity (U-87 MG [29]): 10.6%
